According to patent US20230049952A1, “METHODS AND COMPOUNDS FOR RESTORING MUTANT P53 FUNCTION” (PMV Pharmaceuticals, Inc., priority 2020, published 2023):

System: p53 signaling pathway in MT373 tumors
Assay: MT373 syngeneic sarcoma model: mouse p53 signaling pathway profiling panel
Assay type: in vivo

CCn1c(C#CCNc2ccccc2)cc2cc(CNC3CCN(C)CC3)ccc21 [Compound 1, 1-Anilino-3-{1-ethyl-5-[(1-methyl-4-piperidylamino)methyl]-1H-indol-2-yl}-2-propyne]
Pcna fold increase or percent reduction vs vehicle control (150 mg/kg BIDx1, 24 h): 42.63 fold or % | Pmaip1 fold increase or percent reduction vs vehicle control (150 mg/kg BIDx1, 24 h): 1.45 fold or % | Ppm1d fold increase or percent reduction vs vehicle control (150 mg/kg BIDx1, 24 h): 1.49 fold or % | Prc1 fold increase or percent reduction vs vehicle control (150 mg/kg BIDx1, 24 h): 54.87 fold or % | Prkca fold increase or percent reduction vs vehicle control (150 mg/kg BIDx1, 24 h): 28.12 fold or % | Pten fold increase or percent reduction vs vehicle control (150 mg/kg BIDx1, 24 h): 1.08 fold or % | Pttg1 fold increase or percent reduction vs vehicle control (150 mg/kg BIDx1, 24 h): 1.11 fold or % | Rb1 fold increase or percent reduction vs vehicle control (150 mg/kg BIDx1, 24 h): 1.48 fold or % | Rela fold increase or percent reduction vs vehicle control (150 mg/kg BIDx1, 24 h): 14.73 fold or % | Rprm fold increase or percent reduction vs vehicle control (150 mg/kg BIDx1, 24 h): 2.12 fold or % | Serpinb5 fold increase or percent reduction vs vehicle control (150 mg/kg BIDx1, 24 h): 2.23 fold or % | Sesn2 fold increase or percent reduction vs vehicle control (150 mg/kg BIDx1, 24 h): 2.45 fold or % | Sfn fold increase or percent reduction vs vehicle control (150 mg/kg BIDx1, 24 h): 31.21 fold or % | Sirt1 fold increase or percent reduction vs vehicle control (150 mg/kg BIDx1, 24 h): 15.06 fold or % | Stat1 fold increase or percent reduction vs vehicle control (150 mg/kg BIDx1, 24 h): 1.51 fold or % | Tnf fold increase or percent reduction vs vehicle control (150 mg/kg BIDx1, 24 h): 1.23 fold or % | Traf1 fold increase or percent reduction vs vehicle control (150 mg/kg BIDx1, 24 h): 1.20 fold or % | Trp53bp2 fold increase or percent reduction vs vehicle control (150 mg/kg BIDx1, 24 h): 12.94 fold or % | Trp53 fold increase or percent reduction vs vehicle control (150 mg/kg BIDx1, 24 h): 27.25 fold or % | Apex1 fold increase or percent reduction vs vehicle control (150 mg/kg BIDx1, 48 h): 31.42 fold or % | Atm fold increase or percent reduction vs vehicle control (150 mg/kg BIDx1, 48 h): 26.33 fold or % | Atr fold increase or percent reduction vs vehicle control (150 mg/kg BIDx1, 48 h): 16.47 fold or % | Bag1 fold increase or percent reduction vs vehicle control (150 mg/kg BIDx1, 48 h): 42.01 fold or % | Bax fold increase or percent reduction vs vehicle control (150 mg/kg BIDx1, 48 h): 30.76 fold or % | Bbc3 fold increase or percent reduction vs vehicle control (150 mg/kg BIDx1, 48 h): 1.04 fold or % | Bcl2 fold increase or percent reduction vs vehicle control (150 mg/kg BIDx1, 48 h): 23.30 fold or % | Bid fold increase or percent reduction vs vehicle control (150 mg/kg BIDx1, 48 h): 1.01 fold or % | Birc5 fold increase or percent reduction vs vehicle control (150 mg/kg BIDx1, 48 h): 66.42 fold or % | Brca1 fold increase or percent reduction vs vehicle control (150 mg/kg BIDx1, 48 h): 60.55 fold or % | Brca2 fold increase or percent reduction vs vehicle control (150 mg/kg BIDx1, 48 h): 41.49 fold or % | Btg2 fold increase or percent reduction vs vehicle control (150 mg/kg BIDx1, 48 h): 1.05 fold or % | Casp2 fold increase or percent reduction vs vehicle control (150 mg/kg BIDx1, 48 h): 15.74 fold or % | Ccnb1 fold increase or percent reduction vs vehicle control (150 mg/kg BIDx1, 48 h): 73.80 fold or % | Ccne1 fold increase or percent reduction vs vehicle control (150 mg/kg BIDx1, 48 h): 38.25 fold or % | Ccng1 fold increase or percent reduction vs vehicle control (150 mg/kg BIDx1, 48 h): 1.45 fold or % | Ccnh fold increase or percent reduction vs vehicle control (150 mg/kg BIDx1, 48 h): 16.38 fold or % | Cdc25a fold increase or percent reduction vs vehicle control (150 mg/kg BIDx1, 48 h): 42.22 fold or % | Cdk1 fold increase or percent reduction vs vehicle control (150 mg/kg BIDx1, 48 h): 69.40 fold or % | Cdk4 fold increase or percent reduction vs vehicle control (150 mg/kg BIDx1, 48 h): 54.23 fold or % | Cdkn1a fold increase or percent reduction vs vehicle control (150 mg/kg BIDx1, 48 h): 1.38 fold or % | Cdkn2a fold increase or percent reduction vs vehicle control (150 mg/kg BIDx1, 48 h): 38.18 fold or % | Chek1 fold increase or percent reduction vs vehicle control (150 mg/kg BIDx1, 48 h): 63.16 fold or % | Cradd fold increase or percent reduction vs vehicle control (150 mg/kg BIDx1, 48 h): 24.24 fold or % | Cul9 fold increase or percent reduction vs vehicle control (150 mg/kg BIDx1, 48 h): 1.03 fold or % | Dapk1 fold increase or percent reduction vs vehicle control (150 mg/kg BIDx1, 48 h): 1.17 fold or % | Dnmt1 fold increase or percent reduction vs vehicle control (150 mg/kg BIDx1, 48 h): 34.04 fold or % | E2f1 fold increase or percent reduction vs vehicle control (150 mg/kg BIDx1, 48 h): 30.48 fold or % | E2f3 fold increase or percent reduction vs vehicle control (150 mg/kg BIDx1, 48 h): 33.97 fold or % | Egfr fold increase or percent reduction vs vehicle control (150 mg/kg BIDx1, 48 h): 41.85 fold or % | Egr1 fold increase or percent reduction vs vehicle control (150 mg/kg BIDx1, 48 h): 46.38 fold or % | Ep300 fold increase or percent reduction vs vehicle control (150 mg/kg BIDx1, 48 h): 1.10 fold or % | Ercc1 fold increase or percent reduction vs vehicle control (150 mg/kg BIDx1, 48 h): 44.10 fold or % | Esr1 fold increase or percent reduction vs vehicle control (150 mg/kg BIDx1, 48 h): 1.67 fold or % | Fadd fold increase or percent reduction vs vehicle control (150 mg/kg BIDx1, 48 h): 9.11 fold or % | Fas fold increase or percent reduction vs vehicle control (150 mg/kg BIDx1, 48 h): 10.02 fold or % | Fasl fold increase or percent reduction vs vehicle control (150 mg/kg BIDx1, 48 h): 1.18 fold or % | Foxo3 fold increase or percent reduction vs vehicle control (150 mg/kg BIDx1, 48 h): 7.35 fold or % | Gadd45a fold increase or percent reduction vs vehicle control (150 mg/kg BIDx1, 48 h): 42.12 fold or % | Hif1a fold increase or percent reduction vs vehicle control (150 mg/kg BIDx1, 48 h): 2.87 fold or % | Il6 fold increase or percent reduction vs vehicle control (150 mg/kg BIDx1, 48 h): 79.27 fold or % | Jun fold increase or percent reduction vs vehicle control (150 mg/kg BIDx1, 48 h): 47.43 fold or % | Kras fold increase or percent reduction vs vehicle control (150 mg/kg BIDx1, 48 h): 1.18 fold or % | Lig4 fold increase or percent reduction vs vehicle control (150 mg/kg BIDx1, 48 h): 1.12 fold or % | Mdm2 fold increase or percent reduction vs vehicle control (150 mg/kg BIDx1, 48 h): 1.03 fold or % | Mdm4 fold increase or percent reduction vs vehicle control (150 mg/kg BIDx1, 48 h): 1.28 fold or % | Mel1 fold increase or percent reduction vs vehicle control (150 mg/kg BIDx1, 48 h): 6.76 fold or % | Mlh1 fold increase or percent reduction vs vehicle control (150 mg/kg BIDx1, 48 h): 19.02 fold or % | Msh2 fold increase or percent reduction vs vehicle control (150 mg/kg BIDx1, 48 h): 29.32 fold or % | Myod1 fold increase or percent reduction vs vehicle control (150 mg/kg BIDx1, 48 h): 1.51 fold or % | Nf1 fold increase or percent reduction vs vehicle control (150 mg/kg BIDx1, 48 h): 9.92 fold or % | Nfkb1 fold increase or percent reduction vs vehicle control (150 mg/kg BIDx1, 48 h): 4.37 fold or % | Pcna fold increase or percent reduction vs vehicle control (150 mg/kg BIDx1, 48 h): 58.04 fold or % | Pmaip1 fold increase or percent reduction vs vehicle control (150 mg/kg BIDx1, 48 h): 1.17 fold or % | Ppm1d fold increase or percent reduction vs vehicle control (150 mg/kg BIDx1, 48 h): 2.87 fold or % | Prc1 fold increase or percent reduction vs vehicle control (150 mg/kg BIDx1, 48 h): 59.70 fold or % | Prkca fold increase or percent reduction vs vehicle control (150 mg/kg BIDx1, 48 h): 22.18 fold or % | Pten fold increase or percent reduction vs vehicle control (150 mg/kg BIDx1, 48 h): 1.08 fold or % | Pttg1 fold increase or percent reduction vs vehicle control (150 mg/kg BIDx1, 48 h): 0.69 fold or % | Rb1 fold increase or percent reduction vs vehicle control (150 mg/kg BIDx1, 48 h): 1.43 fold or % | Rela fold increase or percent reduction vs vehicle control (150 mg/kg BIDx1, 48 h): 9.46 fold or % | Rprm fold increase or percent reduction vs vehicle control (150 mg/kg BIDx1, 48 h): 1.00 fold or % | Serpinb5 fold increase or percent reduction vs vehicle control (150 mg/kg BIDx1, 48 h): 3.17 fold or % | Sesn2 fold increase or percent reduction vs vehicle control (150 mg/kg BIDx1, 48 h): 1.21 fold or % | Sfn fold increase or percent reduction vs vehicle control (150 mg/kg BIDx1, 48 h): 13.65 fold or %
